From PubChem BioAssay AID330 (DTP/NCI, 2004)
Where “and” joins values, the source holds several entries; their conditions need not be identical. Identical values can stand only once. Toxic doses and inconclusive results are not listed. The calls were made as follows: active = survival T/C of 150% or more; inactive = T/C below 125% in these data.

Tested on: P388 leukemia ip, CD2F1 mice, survival T/C
Assay: NCI In Vivo Anticancer Drug Screen. Data for tumor model P388 Leukemia (intraperitoneal) in CD2F1 (CDF1) mice
Conditions: endpoint: median survival time, higher = longer survival
Outline: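 Mice carrying the transplanted tumor received test compound or vehicle. Survival was recorded in each group, and the value is the treated-group measurement divided by that of the vehicle-treated control group.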

[1] = dose: 50.0 mg/kg/injection, schedule: Q01DX009 (ip), vehicle: saline
[2] = dose: 50.0 mg/kg/injection, schedule: Q01DX009 (ip), vehicle: water
[3] = dose: 100.0 mg/kg/injection, schedule: Q01DX009 (ip), vehicle: saline
[4] = dose: 100.0 mg/kg/injection, schedule: Q01DX009 (ip), vehicle: water
[5] = dose: 200.0 mg/kg/injection, schedule: Q01DX009 (ip), vehicle: saline
[6] = dose: 200.0 mg/kg/injection, schedule: Q01DX009 (ip), vehicle: water
[7] = dose: 25.0 mg/kg/injection, schedule: Q01DX005 (ip), vehicle: Klucel (hydroxypropylcellulose) (HPC)
[8] = dose: 50.0 mg/kg/injection, schedule: Q01DX005 (ip), vehicle: Klucel (hydroxypropylcellulose) (HPC)
[9] = dose: 100.0 mg/kg/injection, schedule: Q01DX005 (ip), vehicle: Klucel (hydroxypropylcellulose) (HPC)
[10] = dose: 200.0 mg/kg/injection, schedule: Q01DX005 (ip), vehicle: Klucel (hydroxypropylcellulose) (HPC)
[11] = dose: 50.0 mg/kg/injection, schedule: Q01DX005 (ip), vehicle: saline with Tween-80
[12] = dose: 100.0 mg/kg/injection, schedule: Q01DX005 (ip), vehicle: saline with Tween-80
[13] = dose: 200.0 mg/kg/injection, schedule: Q01DX005 (ip), vehicle: saline with Tween-80
[14] = dose: 400.0 mg/kg/injection, schedule: Q01DX001 (ip), vehicle: saline
[15] = dose: 12.5 mg/kg/injection, schedule: Q01DX005 (ip), vehicle: saline
[16] = dose: 25.0 mg/kg/injection, schedule: Q01DX005 (ip), vehicle: saline
[17] = dose: 50.0 mg/kg/injection, schedule: Q01DX005 (ip), vehicle: saline

Measured: T/C

CNC(=O)CC(N)C(=O)O (stereo unspecified)
inactive: dose: 12.5 mg/kg/injection, schedule: Q01DX009 (ip), vehicle: saline 96 % of control | dose: 25.0 mg/kg/injection, schedule: Q01DX009 (ip), vehicle: saline 94 % of control | [1] 101 % of control | [2] 105 % of control | [3] 98 % of control | [4] 105 % of control | [5] 113 % of control | [6] 109 % of control

Oc1cc(O)c(Br)c(O)c1
inactive: dose: 7.5 mg/kg/injection, schedule: Q01DX005 (ip), vehicle: saline 108 % of control | dose: 15.0 mg/kg/injection, schedule: Q01DX005 (ip), vehicle: saline 111 % of control | dose: 30.0 mg/kg/injection, schedule: Q01DX005 (ip), vehicle: saline 105 % of control

c1ccc(-c2nc(N3CCN(c4ccco4)CC3)c3c4c(sc3n2)CCC4)cc1
inactive: dose: 12.5 mg/kg/injection, schedule: Q01DX005 (ip), vehicle: Klucel (hydroxypropylcellulose) (HPC) 97 % of control | [7] 90 % of control | [8] 90 % of control and 91 % of control

Cc1nc([Se]c2nc(C)n3ccncc23)c2cnccn12
inactive: dose: 37.5 mg/kg/injection, schedule: Q01DX001 (ip), vehicle: saline with Tween-80 95 % of control | dose: 75.0 mg/kg/injection, schedule: Q01DX001 (ip), vehicle: saline with Tween-80 100 % of control | dose: 150.0 mg/kg/injection, schedule: Q01DX001 (ip), vehicle: saline with Tween-80 100 % of control

N=C(N)c1ccc(/C=C\C=C/c2cc3cc(C(=N)N)ccc3o2)cc1
inactive: dose: 1.56 mg/kg/injection, schedule: Q04DX003 (ip), vehicle: saline with Tween-80 107 % of control | dose: 3.12 mg/kg/injection, schedule: Q04DX003 (ip), vehicle: saline with Tween-80 122 % of control | dose: 3.12 mg/kg/injection, schedule: Q04DX003 (ip), vehicle: saline 115 % of control | dose: 12.5 mg/kg/injection, schedule: Q04DX003 (ip), vehicle: saline 124 % of control

O=C1C2CC3OC3CC2C(=O)N1CN1C(=O)C2CC3OC3CC2C1=O (stereo unspecified)
inactive: [8] 106 % of control | [9] 91 % of control | [10] 89 % of control

NC(=S)c1ccccc1N=Cc1ccccn1
inactive: dose: 100.0 mg/kg/injection, schedule: Q04DX003 (ip), vehicle: Klucel (hydroxypropylcellulose) (HPC) 100 % of control | dose: 200.0 mg/kg/injection, schedule: Q04DX003 (ip), vehicle: Klucel (hydroxypropylcellulose) (HPC) 107 % of control

Cc1ccc(CC(=O)O)c2c1C(=O)CC2
inactive: dose: 12.5 mg/kg/injection, schedule: Q01DX009 (ip), vehicle: distilled water + Tween-80 92 % of control | dose: 25.0 mg/kg/injection, schedule: Q01DX009 (ip), vehicle: distilled water + Tween-80 90 % of control | dose: 50.0 mg/kg/injection, schedule: Q01DX009 (ip), vehicle: distilled water + Tween-80 90 % of control | dose: 100.0 mg/kg/injection, schedule: Q01DX009 (ip), vehicle: distilled water + Tween-80 90 % of control | dose: 200.0 mg/kg/injection, schedule: Q01DX009 (ip), vehicle: distilled water + Tween-80 90 % of control

COC1C(C2CC(=O)NC(=O)C2)OC2OC(C)(C)OC21 (stereo unspecified)
inactive: [11] 104 % of control | [12] 107 % of control | [13] 104 % of control

Cc1nc(-c2ccccc2)oc1C(N)=O
inactive: dose: 50.0 mg/kg/injection, schedule: Q01DX009 (ip), vehicle: Klucel (hydroxypropylcellulose) (HPC) 108 % of control | dose: 100.0 mg/kg/injection, schedule: Q01DX009 (ip), vehicle: Klucel (hydroxypropylcellulose) (HPC) 110 % of control

O=C(O)c1[nH]c(=O)[nH]c(=O)c1[N+](=O)[O-]
inactive: [8] 93 % of control | [9] 98 % of control | [10] 98 % of control

C=C1C(=O)CCC1C(=O)O (stereo unspecified)
inactive: dose: 178.0 mg/kg/injection, schedule: Q01DX001 (ip), vehicle: saline 100 % of control | dose: 266.0 mg/kg/injection, schedule: Q01DX001 (ip), vehicle: saline 109 % of control | [14] 114 % of control | dose: 600.0 mg/kg/injection, schedule: Q01DX001 (ip), vehicle: saline 118 % of control | dose: 900.0 mg/kg/injection, schedule: Q01DX001 (ip), vehicle: saline 112 % of control

CNC(=O)OCc1c(COC(=O)NC)c2n(c1C)CS(=O)C2 (stereo unspecified)
inactive: dose: 25.0 mg/kg/injection, schedule: Q01DX005 (ip), vehicle: saline with Tween-80 113 % of control | [11] 113 % of control | [12] 121 % of control and 122 % of control | [13] 113 % of control and 115 % of control

Cc1nc2c(c(-c3ccccc3)n1)Cc1c(ccc3ccccc13)O2
inactive: dose: 50.0 mg/kg/injection, schedule: Q01DX009 (ip), vehicle: saline with Tween-80 96 % of control | dose: 100.0 mg/kg/injection, schedule: Q01DX009 (ip), vehicle: saline with Tween-80 102 % of control | dose: 200.0 mg/kg/injection, schedule: Q01DX009 (ip), vehicle: saline with Tween-80 99 % of control | dose: 400.0 mg/kg/injection, schedule: Q01DX009 (ip), vehicle: saline with Tween-80 92 % of control

CC1CCN(P(=O)(N(C)C)N(C)C)CC1
inactive: [1] 98 % of control | [3] 96 % of control | [5] 88 % of control

C=C=CON1CCCCC1
inactive: [15] 99 % of control | [16] 104 % of control | [17] 100 % of control and 104 % of control

OCCCNc1nc2cc(Cl)ccc2o1
inactive: dose: 60.0 mg/kg/injection, schedule: Q01DX005 (ip), vehicle: saline with Tween-80 119 % of control | dose: 120.0 mg/kg/injection, schedule: Q01DX005 (ip), vehicle: saline with Tween-80 103 % of control | dose: 240.0 mg/kg/injection, schedule: Q01DX005 (ip), vehicle: saline with Tween-80 100 % of control

CCCC(C)N(CCCNc1cc(OC)cc2cccnc12)CC(C)C (stereo unspecified)
inactive: [15] 100 % of control | [16] 107 % of control | [11] 96 % of control | [17] 94 % of control

COC(=O)/C(=C/c1ccccc1)NC(C)=O
inactive: dose: 60.0 mg/kg/injection, schedule: Q01DX005 (ip), vehicle: Klucel (hydroxypropylcellulose) (HPC) 104 % of control | dose: 120.0 mg/kg/injection, schedule: Q01DX005 (ip), vehicle: Klucel (hydroxypropylcellulose) (HPC) 101 % of control | dose: 240.0 mg/kg/injection, schedule: Q01DX005 (ip), vehicle: Klucel (hydroxypropylcellulose) (HPC) 97 % of control

COC(=O)c1ncn(CCCO)c1O
inactive: dose: 100.0 mg/kg/injection, schedule: Q01DX001 (ip), vehicle: saline 92 % of control | dose: 200.0 mg/kg/injection, schedule: Q01DX001 (ip), vehicle: saline 100 % of control | [14] 104 % of control

Cc1nc2ccncn2n1
inactive: dose: 100.0 mg/kg/injection, schedule: Q04DX003 (ip), vehicle: saline 99 % of control | dose: 200.0 mg/kg/injection, schedule: Q04DX003 (ip), vehicle: saline 95 % of control | dose: 400.0 mg/kg/injection, schedule: Q04DX003 (ip), vehicle: saline 93 % of control

O=C(N/N=C\c1ccc(N(CCCl)CCCl)cc1)c1cccnc1
inactive: dose: 12.5 mg/kg/injection, schedule: Q01DX009 (ip), vehicle: Klucel (hydroxypropylcellulose) (HPC) 107 % of control | dose: 25.0 mg/kg/injection, schedule: Q01DX009 (ip), vehicle: Klucel (hydroxypropylcellulose) (HPC) 107 % of control

OCCCCCCCCCCCN1CCOCC1
inactive: [11] 106 % of control | [12] 98 % of control | [13] 101 % of control

Nc1nc2c(c(=O)[nH]1)N(C(=O)CCl)C(CNc1ccc(C(=O)NC(CCC(=O)O)C(=O)O)cc1)CN2 (stereo unspecified)
inactive: [2] 99 % of control | [4] 103 % of control | [6] 101 % of control

[CH3][Sn]([CH3])([n]1nnc2ccccc21)[n]1nnc2ccccc21
inactive: [7] 114 % of control | [8] 115 % of control and 121 % of control | [9] 112 % of control and 115 % of control | [10] 112 % of control
